Measured values as given in US8609862B2, “Use of an adrenal hormone-modifying agent” (Novartis AG, priority 2010, dated 2013).

Key:
CYP11B1 = target: T1, CYP11B1 (Rattus norvegicus, UniProt P15393); test: In vivo CYP11B1 assay: plasma corticosterone concentration (PCC) in ACTH-infused conscious rats; conditions: 10 mg/kg p.o., ACTH infusion
T1 construct: from tissue; host or cells: whole animal: conscious male Sprague-Dawley rats under ACTH infusion (the adrenal gland as site of the enzyme comes from the background, b5)
T1 sequence (P15393 25-499): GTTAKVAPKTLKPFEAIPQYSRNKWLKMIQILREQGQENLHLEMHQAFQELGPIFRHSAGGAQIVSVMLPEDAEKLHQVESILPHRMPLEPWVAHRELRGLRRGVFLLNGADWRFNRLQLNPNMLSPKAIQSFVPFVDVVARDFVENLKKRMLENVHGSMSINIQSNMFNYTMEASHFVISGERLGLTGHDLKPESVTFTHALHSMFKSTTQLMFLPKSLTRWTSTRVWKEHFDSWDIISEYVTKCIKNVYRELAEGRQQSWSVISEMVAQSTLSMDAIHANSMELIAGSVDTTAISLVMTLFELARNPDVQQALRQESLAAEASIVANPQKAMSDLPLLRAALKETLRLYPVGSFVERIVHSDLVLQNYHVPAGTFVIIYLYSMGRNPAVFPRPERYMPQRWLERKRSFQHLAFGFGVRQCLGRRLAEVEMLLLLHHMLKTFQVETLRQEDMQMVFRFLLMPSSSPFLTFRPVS
Procedure: (§1) The in vivo effects of compounds on plasma aldosterone concentration (PAC) and plasma glucocorticoid (corticosterone) concentration (PCC) were evaluated in conscious rats.
(§2) Male Sprague-Dawley rats (˜400-600 g body weight) were surgically instrumented with a femoral arterial and venous catheter. The catheters were exteriorized from the lower back through a stainless steel spring and swivel system that enabled the rats to move freely at all times. Rats were allowed at least one week to recover from the surgery before initiating the experiments.
(§3) On the morning of the experiment, a pretreatment blood sample was collected on heparin from the arterial catheter. The blood samples were spun in a refrigerated centrifuge to generate plasma. The plasma was stored frozen at −70° C. until the later measurement of PAC and PCC (by radioimmunoassay). Adrenocorticotropic hormone (ACTH(1-24), referred to herein as ACTH) was then administered as an intravenous (i.v.) bolus (100 ng/kg) followed by a continuous i.v. infusion (30 ng/kg/min) for 9 hours. After one hour of infusion, a baseline (time 0) blood sample was withdrawn from the arterial catheter and processed and stored as described above. The rats were then dosed (typically 0.01 to 100 mg/kg) with the test compound p.o. by oral gavage or parenterally via the arterial catheter (i.a.). Compounds were formulated in an appropriate vehicle (e.g., water (p.o.) or saline (i.a.)) at a physiologically compatible volume (typically 1-2 ml/kg). Additional blood samples were withdrawn at 0.083 (i.a. only), 0.25, 0.5, 1, 2, 3, 4, 5, 6, 7, 8, and 24 hours after dosing with compound and processed and stored as above for later determination of PAC, PCC, and plasma compound concentration (by LC/MS/MS). Oral bioavailability and traditional pharmacokinetic (PK) parameters were estimated from the plasma compound concentrations.
(§4) Based on the plasma compound concentration at each dose, the PK/PD (pharmacodynamic) profiles (reduction of PAC and PCC) of each compound were determined.

Rat CYP11B2 = target: T2, Rat CYP11B2 (Rattus norvegicus, UniProt P30099); test: In vitro rat CYP11B2 assay; assay type: biochemical; conditions: V79-4 cell homogenate, 11-deoxycorticosterone to aldosterone, SPA
T2 construct: made in house; host or cells: V79-4 cell line #305 (stably selected with geneticin and hygromycin); sonicated homogenate, 500 x g supernatant
T2 sequence (P30099 35-510): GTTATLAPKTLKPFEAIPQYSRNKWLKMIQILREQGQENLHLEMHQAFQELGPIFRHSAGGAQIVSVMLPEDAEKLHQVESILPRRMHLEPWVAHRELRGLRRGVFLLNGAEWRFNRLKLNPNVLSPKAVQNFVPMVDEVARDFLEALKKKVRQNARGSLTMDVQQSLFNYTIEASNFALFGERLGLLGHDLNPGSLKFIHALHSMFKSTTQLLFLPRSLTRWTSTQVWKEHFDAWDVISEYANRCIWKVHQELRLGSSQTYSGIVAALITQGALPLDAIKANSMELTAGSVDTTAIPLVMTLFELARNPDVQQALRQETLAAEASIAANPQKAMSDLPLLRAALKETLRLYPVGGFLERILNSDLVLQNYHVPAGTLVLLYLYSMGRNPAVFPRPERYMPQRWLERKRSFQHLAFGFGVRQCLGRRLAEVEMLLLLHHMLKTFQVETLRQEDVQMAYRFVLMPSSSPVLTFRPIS
Procedure: Following 2 days of growth, cells are washed once with PBS, scraped and collected in PBS, and centrifuged at 1,300 rpm for 6 min. […] The sonication procedure is repeated 3 more times, with a 5 min incubation on ice between sonications. The sonicated material is then spun at 500×g for 4 min to remove unbroken cells. The supernatant is brought to a final glycerol concentration of 5%, flash-frozen in liquid nitrogen, and stored at −80° C.
The CYP11B2 assay is performed in 96-well U-bottom non-tissue-culture-treated plates. […] Plates are then centrifuged at 2,400 rpm for 6 min, and 100 μl of supernatant is removed for measurement of aldosterone content by scintillation proximity assay (SPA).
Measurement of aldosterone is performed using a 96-well plate format. […] Anti-mouse PVT SPA beads (50 μl) are then added to each well and incubated for 4 hr at room temperature prior to counting in a Microbeta plate counter. The amount of aldosterone in each sample is calculated by comparing with a standard curve generated using known quantities of the hormone.
Full concentration-response curves of an inhibitor are performed at least 3 times. The IC50 values are derived using a non-linear least squares curve-fitting program from DBS XLfit.

Rat CYP11B1 = target: T3, Rat CYP11B1 (Rattus norvegicus, UniProt P15393); test: In vitro rat CYP11B1 assay; assay type: biochemical; conditions: V79-4 cell homogenate, 11-deoxycorticosterone to corticosterone, SPA
T3 construct: made in house; host or cells: V79-4 cell line #259 (stably selected with geneticin and hygromycin); sonicated homogenate, 500 x g supernatant
T3 sequence (P15393 25-499): T1 sequence (P15393 25-499)
Excerpt: Complete EDTA-free protease inhibitor tablets were obtained from Roche Applied Science (Indianapolis, Ind.). Dulbecco's modified Eagle medium (DMEM), antibiotic, geneticin, hygromycin, and fetal bovine serum (FBS) were products of Invitrogen (Carlsbad, Calif.). NADPH Regeneration Solution A and Solution B were purchased from BD Biosciences Clontech (Palo Alto, Calif.). Anti-sheep PVT SPA beads and [1,2,6,7-^3H(N)]corticosterone were acquired from Amersham (Piscataway, N.J.) and PerkinElmer (Boston, Mass.), respectively.
For enzyme preparation, #259 cells were seeded in 150 mm dishes in double-selection medium. Following 2 days of growth, cells were washed once with PBS, scraped and collected in PBS, and centrifuged at 1,300 rpm for 6 min. […] The sonication procedure was repeated 3 more times, with a 5 min rest on ice between sonications. The sonicated material was then spun at 500×g for 4 min to remove unbroken cells. The supernatant was brought to a final glycerol concentration of 5%, flash-frozen in liquid nitrogen, and stored at −80° C.
The CYP11B1 assays were performed in 96-well U-bottom non-tissue-culture-treated plates. […] Plates were then centrifuged at 2,400 rpm for 6 min, and 50 μl of supernatant was removed for measurement of corticosterone content by scintillation proximity assay (SPA).
Measurement of corticosterone was performed using a 96-well plate format. […] Anti-sheep PVT SPA beads (50 μl) were then added to each well and incubated overnight at room temperature prior to counting in a Microbeta plate counter. The amount of corticosterone in each sample was calculated by comparing with a standard curve generated using known quantities of the hormone.
Full concentration-response curves of an inhibitor were performed at least 3 times. The IC50 values were derived using a non-linear least squares curve-fitting program from IDBS XLfit.

CYP11B2 = target: T4, CYP11B2 (Rattus norvegicus, UniProt P30099); test: In vivo assay: plasma aldosterone concentration (PAC) in ACTH-infused conscious rats; conditions: 10 mg/kg p.o., ACTH infusion
T4 construct: from tissue; host or cells: whole animal: conscious male Sprague-Dawley rats under ACTH infusion (the adrenal gland as site of the enzyme comes from the background, b5)
T4 sequence (P30099 35-510): T2 sequence (P30099 35-510)
Procedure: as §1, §2, §3, §4

adrenal steroidogenesis = test: Pilot single-blind forced-titration study of hormonal effects in patients with primary hyperaldosteronism; assay type: in vivo, human; conditions: oral 0.5 mg twice daily 2 weeks then 1.0 mg twice daily 2 weeks
Procedure: A pilot, single-blind, forced-titration study was performed to assess the hormonal effects of a compound of formula (I), 4-[(5R)-6,7-dihydro-5H-pyrrolo[1,2-c]imidazol-5-yl]-3-fluororbenzonitrile dihydrogen phosphate, in patients with diagnosed primary hyperaldosteronism. The clinical study was designed, implemented and reported in accordance with the ICH harmonized tripartite guidelines for good clinical practice with applicable local regulations. Each patient participated in a screening/washout period, a 2-week placebo run-in period, a 4-week treatment period, and a 1-week placebo wash-out. The treatment period consisted of the oral administration of compound of formula (I) twice daily at a dose of 0.5 mg for two weeks followed by a dose increase to 1.0 mg twice daily for another 2 weeks. Blood samples were taken at baseline, day 1 and 2, day 8, day 15, day 22, day 29 and 30 (all at predose i.e., 12 h after the last dose), and at the final study day 36. Each sample was assessed for aldosterone and immunoreactive active renin, 11-deoxycorticosterone, cortisol, 11-deoxycortisol and adrenocorticotropin (ACTH) after subjects were at rest for at least 60 minutes to avoid any postural or stress-induced value changes. Plasma aldosterone was measured using a commercially available radioimmunoassay kit (DPC, France). Plasma Active Renin was measured using the two monoclonal antibodies 3E8 and 125I-4G1 in a commercially available immunoradiometric kit (CisBio, France). Plasma 11-deoxycorticosterone, cortisol and 11-deoxycortisol were measured using a standardized LC-MS/MS method. Plasma ACTH was measured using a commercially available immunoradiometric kit (CisBio, France).
Statistical analysis of the pharmacodynamic biomarker were summarized using descriptive statistics as well as graphical and/or regression methods.

How did the “% Reduction from baseline PCC t = 1 h” value (CYP11B1; 1 h after dosing) turn out when `N#Cc1ccc([C@H]2CCc3cncn32)c(F)c1` (single isomer, unassigned) [4-(6,7-Dihydro-5H-pyrrolo[1,2-c]imidazol-5-yl)-3-fluorobenzonitrile enantiomer B, 4-(6,7-Dihydro-5H-pyrrolo[1,2-c]imidazol-5-yl)-3-fluorobenzonitrile] was run?
Its value is 24%.

What about the “% Reduction from baseline PCC 8 h” value (CYP11B1; 8 h after dosing) of the same molecule?
Its value is 30%.

What about the IC50 (Rat CYP11B2) of the same molecule?
Its IC50 is 110 nM.

What about the IC50 (Rat CYP11B1) of the same molecule?
The IC50 was 495 nM.

What about the “% Reduction from baseline PAC t = 1 h” value (CYP11B2; 1 h after dosing) of the same molecule?
The value was 65%.

What about the “% Reduction from baseline PAC 8 h” value (CYP11B2; 8 h after dosing) of the same molecule?
The value was 72%.

For `N#Cc1ccc([C@H]2CCc3cncn32)c(F)c1.O=P(O)(O)O` [4-[(5R)-6,7-dihydro-5H-pyrrolo[1,2-c]imidazol-5-yl]-3-fluororbenzonitrile dihydrogen phosphate], which “plasma 11-deoxycorticosterone (P11DOCS)” value (adrenal steroidogenesis) is on record?
Its value is “unexpectedly high build-up”.

What about the “plasma 11-deoxycortisol (P11DOC)” value (adrenal steroidogenesis) of the same molecule?
Its value is “accumulation”.

And the “plasma ACTH levels” value (adrenal steroidogenesis)?
Its value is “increased ACTH levels”.

And the “plasma active renin level” value (adrenal steroidogenesis)?
Its value is “increased active renin level”.

And the plasma aldosterone (adrenal steroidogenesis)?
The plasma aldosterone was “potent aldosterone suppression”.

What about the plasma cortisol levels (adrenal steroidogenesis) of the same molecule?
The plasma cortisol levels was “decreasing cortisol levels”.
